Results from the supplement of paper PMC10307832.

How the values were obtained:
Assay in all cases: relative viability (nuclei count vs DMSO), 5 days (fraction); higher = more cells survive
[1] = compound: Cc1nc(Nc2ncc(C(=O)Nc3c(C)cccc3Cl)s2)cc(N2CCN(CCO)CC2)n1 [Dasatinib] + NC(=O)Nc1cc(-c2cccc(F)c2)sc1C(=O)N[C@H]1CCCNC1 [AZD7762] (partner 0.2 µM)
Outline: (§1)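 Relative viability is defined as nuclei in treated wells over nuclei in vehicle wells. Duplicate plates were run and medians reported. Lung cancer cell lines in 1536-well plates were dosed by pin tool one day after seeding, with one drug or with a fixed anchor-drug dose plus five library-drug doses (not always all listed) in √10 steps, and nuclei were counted after 5 days.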

[2] = compound: C1CC1C(=O)NC2=NNC3=C2C=CC(=C3)C4=CC(=CC=C4)C(=O)NC5CC5 [XMD13-2] + CC1(C)CCC(c2ccc(Cl)cc2)=C(CN2CCN(c3ccc(C(=O)NS(=O)(=O)c4ccc(N[C@H](CCN5CCOCC5)CSc5ccccc5)c(S(=O)(=O)C(F)(F)F)c4)cc3)CC2)C1 [Navitoclax] (partner 0.5 µM)
Outline: as §1

[3] = compound: Cc1ccc(C(=O)Nc2cccc(C(F)(F)F)c2)cc1Nc1cncc(C(N)=O)c1 [ALW-II-49-7] + COc1cccc2cc(-c3nc([C@H]4CC[C@H](C(=O)O)CC4)n4ncnc(N)c34)[nH]c12 [OSI-027] (partner 0.5 µM)
Outline: as §1

[4] = compound: C1CC1C(=O)NC2=NNC3=C2C=CC(=C3)C4=CC(=CC=C4)C(=O)NC5CC5 [XMD13-2] + Cc1cc(Nc2cc(N3CCN(C)CC3)nc(Sc3ccc(NC(=O)C4CC4)cc3)n2)n[nH]1 [Tozasertib] (partner 0.1 µM)
Outline: as §1

Cell Line | relative viability ([1]; first compound 0.005 µM) | relative viability ([1]; first compound 0.01581 µM) | relative viability ([1]; first compound 0.05 µM) | relative viability ([1]; first compound 0.1581 µM) | relative viability ([1]; first compound 0.5 µM) | relative viability ([2]; first compound 0.05 µM) | relative viability ([2]; first compound 0.1581 µM) | relative viability ([2]; first compound 0.5 µM) | relative viability ([2]; first compound 1.581 µM) | relative viability ([2]; first compound 5 µM) | relative viability ([3]; first compound 0.08 µM) | relative viability ([3]; first compound 0.253 µM) | relative viability ([3]; first compound 0.8 µM) | relative viability ([3]; first compound 2.53 µM) | relative viability ([3]; first compound 8 µM) | relative viability ([4]; first compound 0.05 µM) | relative viability ([4]; first compound 0.1581 µM) | relative viability ([4]; first compound 0.5 µM) | relative viability ([4]; first compound 1.581 µM) | relative viability ([4]; first compound 5 µM)
NCI-H2170 | 0.864 | 0.779 | 0.633 | 0.409 | 0.278 | 0.761 | 0.577 | 0.577 | 0.569 | 0.475 | 0.71 | 0.931 | 0.67 | 0.664 | 0.703 | 0.646 | 0.737 | 0.774 | 0.672 | 0.719
NCI-H2347 | 0.614 | 0.538 | 0.549 | 0.296 | 0.282 | 0.726 | 0.827 | 0.919 | 0.786 | 0.981 | 0.386 | 0.396 | 0.443 | 0.36 | 0.276 | 0.559 | 0.577 | 0.727 | 0.487 | 0.517
NCI-H2405 | 0.656 | 0.514 | 0.368 | 0.212 | 0.228 | 0.871 | 0.727 | 0.9 | 0.767 | 0.916 | 0.634 | 0.643 | 0.583 | 0.558 | 0.609 | 0.788 | 0.645 | 0.801 | 0.707 | 0.712
NCI-H3122 | 0.991 | 0.982 | 0.951 | 0.876 | 0.643 | 0.996 | 1.02 | 1.02 | 1.01 | 1.01 | 0.905 | 0.254 | 1.05 | – | 1.09 | 0.467 | 0.395 | 0.378 | 0.377 | 0.373
PC-3 [JPC-3] | 0.98 | 1.04 | 0.755 | 0.528 | 0.427 | 0.819 | 0.843 | 0.827 | 0.781 | 0.693 | 0.655 | 0.733 | 0.805 | 0.688 | 0.63 | 0.887 | 0.911 | 0.902 | 0.908 | 0.874
PC-14 | 0.405 | 0.468 | 0.34 | 0.401 | 0.112 | 0.972 | 1.1 | 0.999 | 0.973 | 1 | 0.815 | 0.824 | 0.622 | 0.645 | 0.579 | 0.605 | 0.657 | 0.632 | 0.608 | 0.562
RERF-LC-KJ | 1.06 | 0.824 | 0.889 | 0.761 | 0.6 | 1.14 | 1.03 | 0.674 | 1 | 0.733 | 0.511 | 0.564 | 0.504 | 0.559 | 0.535 | 0.613 | 0.515 | 0.59 | 0.466 | 0.523
